# Where a SMILES comes first, the peptide text is derived from it. Bridges are numbered along the chain shown (N, C = ends).
# Test: Interspecies allometric scaling to predict human PK and human equivalent dose
# Protocol: Interspecies allometric scaling: Single-dose PK data from mice, rats, cynomolgus monkeys, and a vervet was used to predict human PK parameters using simple allometry. The relationship between CL or Vss obtained from the NCA, and the body weight was described using the following equation: Y=a·BW^b, where Y is the PK parameter (e.g., CL or Vss), BW is the bodyweight of the species, a is an allometric coefficient, and b is an allometric exponent. Linear regression was performed on log-transformed data. The predicted human equivalent dose was calculated based on the allometrically scaled clearance using the following equation: Dose=CL*AUC0-∞. The corresponding average AUCτ and AUC0-∞ at NOAEL and LOAEL, respectively, were used to convert the doses at NOAEL and LOAEL in preclinical animals to HED.
smiles,measurement,setting,value
"CC[C@H](C)[C@@H]1NC(=O)[C@@H]2CSSC[C@H](NC(=O)[C@H](CCCNC(=N)N)NC(=O)[C@@H]3CSSC[C@H](NC1=O)C(=O)N[C@@H]([C@@H](C)O)C(=O)N[C@@H](CCCNC(=N)N)C(=O)NCC(=O)N[C@@H](Cc1ccccc1)C(=O)N3)C(=O)N[C@@H](CC(C)C)C(=O)N[C@H]1CSSC[C@H](NC(=O)[C@H](C(C)C)NC(=O)CNC(=O)[C@H](CCCNC(=N)N)NC(=O)[C@H](CCCNC(=N)N)NC1=O)C(=O)N[C@@H](CCCNC(=N)N)C(=O)N2 [Peptide 1] (cyclo(GFCRCLCRRGVCRCICTR); disulfide 3-16, 5-14, 7-12)",HED equivalent to NOAEL in cynomolgus monkeys,70 kg individual,15.9 mg/kg
same,HED equivalent to NOAEL in rats,70 kg individual,3.1 mg/kg
same,predicted human Vss,"adult 70 kg, simple allometry",28.0 L

# From patent US20240108702A1, “Use Of Naturally Occurring Cyclic Peptides For Treatment Of SARS-COV-2 Infection” (The University of Southern California, priority 2021, published 2024)
